Assay results from patent US12527870B2, “Peptide hydrogels for delivery of immunosuppressive drugs and uses thereof” (THE JOHNS HOPKINS UNIVERSITY, priority 2018, dated 2026).
Structures can show the parent of a compound that is named as a salt.

What was measured:
Format in all cases: physicochemical
[1] = Ex vivo drug release from peptide hydrogel into buffer
Source text: FIGS. 1A-1D: Release profiles of tofacitinib from peptide hydrogels. (FIG. 1A) Sustained release profile of tofacitinib free base vs burst release of tofacitinib citrate salt from MAX8 peptide hydrogel at early time points. (FIG. 1B) Release profiles of tofacitinib free base and citrate at longer time duration. (FIG. 1C) Variation of release profiles of tofacitinib free base based on the initial amount of drug loading. (FIG. 1D) Release profiles of tofacitinib free base from MAX1 and HLT2 peptide hydrogels. Concentration of tofacitinib free base was 16 mM. In each case, release of the drug was monitored from the hydrogel into an infinite sink (25 mM HEPES, 150 mM NaCl, pH 7.4) at 37° C. Lines are included for visual guidance.
A MAX8 peptide stock solution was prepared in glass vials by dissolving 1 mg of peptide in 50 μL of chilled sterile water. Tofacitinib free base and tofacitinib citrate (purchased from LC Laboratories, Woburn, MA) stock solutions were prepared in spectrophotometric grade DMSO with final concentrations of 100 μg/μL and 160 μg/μL, respectively. Concentration of the stock solution was determined in such a way that would maintain equal ratio of DMSO to HEPES buffered saline (HBS) (v/v) while loading equimolar concentration of tofacitinib free base and citrate into the hydrogel. Required volume of drug stock solution was added into a chilled solution of HBS (2X HBS, 50 mM HEPES, 300 mM NaCl, pH 7.4) to make the final volume as 50 μL. At this point, care was taken to avoid mixing before the peptide stock solution had been transferred to the resulting suspension. Peptide solution was added and samples were then mixed to initiate hydrogelation, resulting in a 1.0 wt % gel of a final total volume of 100 μL containing required amount of loaded drug. Tofacitinib free base was loaded to the final concentrations of 1.6, 3.2 and 16 mM. For tofacitinib citrate salt, only hydrogels with a final concentration of 16 mM loaded drug were considered for drug release studies. Samples were placed in an incubator at 37° C. for 24 hours. After 24 hours, 1 mL of 1X HBS (25 mM HEPES, 150 mM NaCl, pH 7.4) was added to the top of gel. At scheduled time points, the entire volume of buffer above the gel was removed and replaced with fresh buffer. Drug concentration was determined for each removed aliquot as a function of time by measuring absorbance at 290 nm in a UV-VIS spectrophotometer (Agilent 8453) with a standard curve constructed under similar conditions.

[2] = Crystallization of drug within peptide hydrogel (phase-contrast, confocal, polarized light microscopy)
Method: During hydrogel-mediated encapsulation, when used at a loading concentration of 16 mM, tofacitinib free base initially produced an opaque suspension that turned into a transparent hydrogel as the drug dissolved in the self-assembled peptide matrix at 37° C. during the first 2-3 hours. […] Approximately 10 μL of the hydrogel was then placed on a glass slide and covered with a cover slip. Phase-contrast microscopy (EVOS FL Cell Imaging System) and confocal microscopy (LSM 710) were used to characterize the drug aggregates suspended in the hydrogel matrix. Crystallinity of the aggregates was verified from polarized light microscopy at low and high magnification.
Shown in FIGS. 2A-2C are phase contrast images of tofacitinib free base encapsulated within MAX8 peptide hydrogel at the drug concentrations of 16 mM (FIG. 2A), 1.6 mM (FIG. 2B) and blank MAX8 peptide hydrogel (FIG. 2C). Shown in FIGS. 2D-2E are confocal microscopy-generated differential interference contrast images of tofacitinib free base microcrystals dispersed in MAX8 peptide gel network at a drug concentration of 16 mM.

[3] = Release profile from MAX8 hydrogel with varying DMSO volume ratio; conditions: 16 mM, DMSO 2-30% by volume
Method: FIGS. 6A-6B: Release profile of tofacitinib from MAX8 hydrogel. (FIG. 6A) Cumulative release profiles of tofacitinib (free base) from MAX8 hydrogel containing different volume ratios of DMSO versus hydrogel. In each case, the tofacitinib stock solution was prepared in DMSO and an increasing volume of the DMSO stock was added while constituting the hydrogel. The total concentration of loaded tofacitinib was constant at 16 mM. Release profile of the drug was monitored from the hydrogel into buffer (25 mM HEPES, 150 mM NaCl, pH 7.4) at 37° C. (FIG. 6B) Release rate of tofacitinib from MAX8 hydrogel containing varying volumes of DMSO during the first 4 hours.
In each case, the tofacitinib stock solution was prepared in DMSO and an increasing volume of the DMSO stock was added while constituting the hydrogel. The total concentration of loaded tofacitinib was constant at 16 mM. The release profile of the drug was monitored from the hydrogel into buffer (25 mM HEPES, 150 mM NaCl, pH 7.4) at 37° C.

[4] = MAX8 hydrogel, 16 mM loading, HBS pH 7.4, 37° C.
[5] = MAX8 hydrogel, 16 mM loading, 37° C.

release profile from MAX8 hydrogel, free base vs citrate [1, 4]	crystallization within MAX8 hydrogel [2, 5]	period to show similar cumulative release (over 75%) ([1]; MAX8 hydrogel, 16 mM loading, crystallized state, HBS pH 7.4, 37° C.)	release profile at lower loading compared to 16 mM ([1]; MAX8 hydrogel, 0.48, 1.6 and 3.2 mM loading)	drug released within the first 10 hours ([1]; MAX8 hydrogel, loading 0.48 to 3.2 mM, soluble (not crystallized) drug, into 25 mM HEPES, 150 mM NaCl, pH 7.4, 37° C.)	crystallization within HLT2 hydrogel ([2]; HLT2 hydrogel, 16 mM loading)	crystallization within MAX1 hydrogel ([2]; MAX1 hydrogel, 16 mM loading)	loading concentration needed for crystallization ([2]; MAX8 hydrogel)	time of in situ crystallization after dissolution ([2]; MAX8 hydrogel, 16 mM, 37° C., after the first 2-3 hours)	crystallization within MAX8 hydrogel below 16 mM ([2]; MAX8 hydrogel, loading concentration below 16 mM)	effect of decreasing the DMSO concentration on solubility [3]	SMILES
released faster	did not crystallize	–	–	–	–	–	–	–	–	–	C[C@@H]1CCN(C(=O)CC#N)C[C@@H]1N(C)c1ncnc2[nH]ccc12 [tofacitinib citrate]
slower, more sustained release	gradually crystallized in situ	6 days	more rapid release	over 75%	crystallized	crystallized	above 3.2 mM	~20 h	no visible indication of crystallization	reduces the solubility	C[C@@H]1CCN(C(=O)CC#N)C[C@@H]1N(C)c1ncnc2[nH]ccc12 [tofacitinib free base, 3-((3R,4R)-4-methyl-3-(methyl (7H-pyrrolo[2,3-d]pyrimidin-4-yl)amino)piperidin-1-yl)-3-oxopropanenitrile]
